Data published in PubChem BioAssay (NCI).
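Briefly, cells in 96-well plates were exposed to five compound concentrations for 48 h, and endpoints were estimated by linear interpolation. Here, GI50 denotes the concentration required for 50% inhibition of growth. TGI marks complete inhibition of growth.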

What was measured:
Assay in all cases: NCI anticancer screen, dose series, 48 h
[1] = tested on: SK-MEL-2 melanoma
[2] = tested on: PC-3 prostate
[3] = tested on: KM12 colon
[4] = tested on: RPMI-8226 leukemia
[5] = tested on: A549 NSCLC
[6] = tested on: SF-268 CNS
[7] = tested on: BT-549 breast
[8] = tested on: U251 CNS
[9] = tested on: HOP-92 NSCLC
[10] = tested on: COLO 205 colon

Row | SMILES | GI50 [1] | TGI [1] | GI50 [2] | TGI [2] | GI50 [3] | TGI [3] | GI50 [4] | TGI [4] | GI50 [5] | TGI [5] | GI50 [6] | TGI [6] | GI50 [7] | TGI [7] | GI50 [8] | GI50 [9] | TGI [9] | GI50 [10] | TGI [10] | TGI [8]
1 | CCc1c2c(nc3ccc(OCc4ccc(B5OC(C)(C)C(C)(C)O5)cc4)cc13)-c1cc3c(c(=O)n1C2)COC(=O)[C@]3(O)CC | 0.825 µM | > 24.6 µM | 0.146 µM | > 100 µM | 0.137 µM | 1.62 µM | 0.312 µM | > 100 µM | 0.06 µM | > 100 µM | < 0.01 µM | > 100 µM | 0.0757 µM | > 100 µM | < 0.01 µM | 0.0378 µM | 0.963 µM | 0.126 µM | > 100 µM | –
2 | O=C1COCCN1c1ccc(NCc2cn(C(=O)c3ccc(Cl)cc3)c3ccccc23)cc1 | 2.19 µM | 15.3 µM | 4.78 µM | 49.5 µM | 13.7 µM | > 100 µM | 2.13 µM | 15.8 µM | 3.36 µM | > 100 µM | 13.4 µM | 95.1 µM | 4.37 µM | 53.7 µM | 1.19 µM | 1.66 µM | 15 µM | 3.28 µM | 21.8 µM | 25.8 µM
3 | O=C1NC(SCc2ccc(F)cc2)=N/C1=C/c1cccc(OCc2ccc(Cl)cc2)c1 | > 100 µM | > 100 µM | > 100 µM | > 100 µM | > 100 µM | > 100 µM | > 100 µM | > 100 µM | 6.61 µM | > 100 µM | > 100 µM | > 100 µM | 23.4 µM | > 100 µM | 3.83 µM | 67.7 µM | > 100 µM | > 100 µM | > 100 µM | 19.6 µM
4 | CCC(=O)c1c(C(F)(F)F)n([O-])c2ccccc2[n+]1=O | 14.9 µM | > 100 µM | 0.629 µM | 5.34 µM | 1.86 µM | 5.86 µM | 0.694 µM | 3.69 µM | 2.3 µM | 11.4 µM | 1.22 µM | 6.34 µM | 2 µM | 6.13 µM | 2.16 µM | 1.5 µM | 6.08 µM | 2.06 µM | 6.51 µM | 13 µM
5 | CN(C)CC1=Nc2cccc3cccc(c23)N1 | – | 35.5 µM | – | 32.3 µM | – | 59.3 µM | – | 55.8 µM | – | > 100 µM | – | 33.4 µM | – | 31.5 µM | – | – | 33.1 µM | – | 7.11 µM | 32.5 µM
6 | Cn1c2ccccc2c2[nH]c3ccccc3c(=O)c21 | – | > 100 µM | – | > 100 µM | – | > 100 µM | – | > 100 µM | – | > 100 µM | – | > 100 µM | – | > 100 µM | – | – | > 100 µM | – | > 100 µM | > 100 µM
7 | CNc1ncc2cc(Oc3ccc(F)cc3F)c(=O)n(C)c2n1 | > 25 µM | > 25 µM | > 25 µM | > 25 µM | > 25 µM | > 25 µM | > 25 µM | > 25 µM | > 25 µM | > 25 µM | > 25 µM | > 25 µM | > 25 µM | > 25 µM | > 25 µM | 3.82 µM | > 25 µM | > 25 µM | > 25 µM | > 25 µM
8 | CN(C)N=Nc1nn(C(=O)Nc2ccc(Cc3ccccc3)cc2)c2ccccc12 | 2.07 µM | > 100 µM | 4.65 µM | > 100 µM | 0.312 µM | > 100 µM | 5.06 µM | > 100 µM | 3.9 µM | > 100 µM | 17.1 µM | > 100 µM | 25.7 µM | > 100 µM | – | 6.47 µM | > 100 µM | 0.77 µM | 2.45 µM | > 100 µM
9 | O=C(CN1C(=O)S/C(=C\C(Cl)=C\c2ccccc2)C1=O)NCCCn1ccnc1 | 2.8 µM | 9.55 µM | 2.03 µM | 5.74 µM | 1.95 µM | 4.22 µM | 1.78 µM | 6.74 µM | 3.3 µM | 23.2 µM | 2.52 µM | 7.65 µM | 2.12 µM | 4.83 µM | 2.54 µM | 1.76 µM | 4.46 µM | 2.1 µM | 4.82 µM | 8.01 µM
10 | COC(=O)Nc1nc2ccc(S(=O)(=O)c3ccc(NC(=O)Nc4cc(C(F)(F)F)ccc4F)cc3)cc2[nH]1 | > 25 µM | > 25 µM | > 25 µM | > 25 µM | > 21.1 µM | > 25 µM | > 25 µM | > 25 µM | > 25 µM | > 25 µM | > 25 µM | > 25 µM | > 25 µM | > 25 µM | > 25 µM | > 25 µM | > 25 µM | > 25 µM | > 25 µM | > 25 µM
11 | NCCSC(C[N+](=O)[O-])c1ccccc1Cl (stereo not drawn) | 21.9 µM | 51.5 µM | 4.19 µM | > 32.7 µM | 1.82 µM | 3.42 µM | 0.727 µM | 5.3 µM | 4.87 µM | 15.5 µM | 2.79 µM | 8.53 µM | 2.03 µM | 4.26 µM | 1.85 µM | 12.5 µM | 47.2 µM | 2.14 µM | 4.35 µM | 3.81 µM
12 | C=C1C(=O)O[C@H]2[C@H]1CC/C(CNC(=O)/C=C/c1ccc(Cl)cc1Cl)=C\CC[C@@]1(C)O[C@@H]21 | 1.55 µM | 3.63 µM | 1.42 µM | 4.4 µM | 1.62 µM | 3.03 µM | 0.329 µM | 1.54 µM | 2.12 µM | 5.46 µM | 1.09 µM | 2.67 µM | 0.975 µM | 2.59 µM | 1.65 µM | 0.483 µM | 2.52 µM | 1.14 µM | 2.95 µM | 3.14 µM
13 | Nc1ccccc1C#C/C=C\C#Cc1ccccc1F | 17.3 µM | 47.3 µM | 6.8 µM | > 100 µM | 2.1 µM | 11 µM | 2.66 µM | 23.8 µM | 10 µM | 95.8 µM | 4.23 µM | 23.3 µM | 4.06 µM | 18.1 µM | 6.44 µM | 17.9 µM | > 100 µM | 10.3 µM | 34.1 µM | 20.7 µM
14 | O=C(NN1C(=O)CSC12CCC(c1ccccc1)CC2)c1[nH]c2ccc(F)cc2c1-c1ccccc1 (stereo not drawn) | 17.6 µM | 33.2 µM | 18.1 µM | 39.6 µM | 16 µM | 30.7 µM | 13.8 µM | 31.8 µM | 15.7 µM | 30.8 µM | 20 µM | 48.4 µM | 19.9 µM | 34.8 µM | 15.6 µM | 17.2 µM | 34.5 µM | 21.2 µM | 68.3 µM | 29.9 µM
15 | CN(C)C(=S)SCC(N)=O | – | > 100 µM | – | > 100 µM | – | > 100 µM | – | > 100 µM | – | > 100 µM | – | > 100 µM | – | > 100 µM | – | – | > 100 µM | – | > 100 µM | > 100 µM
16 | COc1ccc2c(c1OC)C(=O)O[C@@H]2[C@H]1c2c(c(Br)c3c(c2OC)OCO3)CCN1C | > 100 µM | > 100 µM | 9.11 µM | > 100 µM | 4.49 µM | > 100 µM | 6.97 µM | > 100 µM | 8.57 µM | > 100 µM | 18 µM | > 100 µM | > 100 µM | > 100 µM | 8.8 µM | 21.7 µM | > 100 µM | 27.1 µM | > 100 µM | > 100 µM
